The record followed here is ChEMBL document CHEMBL1144812, “Small molecules with structural similarities to siderophores as novel antimicrobials against Mycobacterium tuberculosis and Yersinia pestis” (Bioorg Med Chem Lett, 2008).

A value given as a limit tells only on which side of the number the result lay.

Series [1] concerns the target T1, AMP-binding enzyme family protein (Yersinia pestis, UniProt Q56950).
T1 sequence (Q56950 whole entry): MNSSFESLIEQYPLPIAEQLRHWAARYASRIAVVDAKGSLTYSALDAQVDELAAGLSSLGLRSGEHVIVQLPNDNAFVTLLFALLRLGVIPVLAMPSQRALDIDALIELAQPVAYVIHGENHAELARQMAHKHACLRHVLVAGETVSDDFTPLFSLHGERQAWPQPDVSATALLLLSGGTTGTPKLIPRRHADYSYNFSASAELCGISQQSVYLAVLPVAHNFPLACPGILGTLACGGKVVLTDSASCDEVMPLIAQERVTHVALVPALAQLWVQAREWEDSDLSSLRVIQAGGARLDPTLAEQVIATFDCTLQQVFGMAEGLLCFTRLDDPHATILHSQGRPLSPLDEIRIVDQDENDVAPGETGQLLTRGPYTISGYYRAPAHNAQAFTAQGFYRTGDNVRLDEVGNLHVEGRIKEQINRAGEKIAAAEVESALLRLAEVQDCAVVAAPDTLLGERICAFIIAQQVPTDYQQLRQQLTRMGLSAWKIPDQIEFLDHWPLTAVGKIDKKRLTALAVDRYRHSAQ
The experiment in a line: Inhibition of Yersinia pestis YbtE assessed as incorporation of [3H]salicyl group to HMWP2 protein.

Series [2] relates to Mycobacterium tuberculosis. As to the kind of experiment: Antimycobacterial activity against Mycobacterium tuberculosis H37Rv in presence of iron rich GAST-D medium. In kind it is functional, organism-based.
Series [3] concerns Mycobacterium tuberculosis. The experiment in a line: Antimycobacterial activity against Mycobacterium tuberculosis H37Rv in presence of iron deficient GAST-D medium. It counts as functional, organism-based.
The subject of series [4] is Mycobacterium tuberculosis. The experiment in a line: Ratio of MIC90 for Mycobacterium tuberculosis H37Rv in iron rich GAST-D medium to MIC90 for Mycobacterium tuberculosis H37Rv in presence of iron limiting GAST-D medium. In kind it is functional.
The test system of series [5] is Yersinia pestis. The experiment in a line: Antimicrobial activity against Yersinia pestis KIM6-2082.1+ in presence of iron rich PMH-D medium. In kind it is functional, organism-based.
Series [6] relates to Yersinia pestis. As to the kind of experiment: Antimicrobial activity against Yersinia pestis KIM6-2082.1+ in presence of iron limiting PMH-D medium. In kind it is functional, organism-based.
For series [7], the system named is Yersinia pestis. The experiment in a line: Ratio of MIC90 for Yersinia pestis KIM6-2082.1+ in iron rich PMH-D medium to MIC90 for Yersinia pestis KIM6-2082.1+ in presence of iron limiting PMH-D medium. In kind it is functional.
Series [8] is described as follows: Cytotoxicity against human HeLa cells after 24 hrs. In kind it is cell-based. To be noted: read-out: CD50.

As to `Oc1ccccc1C1=NN(C(=S)Nc2ccccc2)[C@H](c2ccccc2O)C1`, the IC50 in series [1] was 0.6 µM; in series [2], 65 µM; in series [3] it was 29 µM; in the series with Yersinia pestis [5], > 19 µM; in the series on Yersinia pestis [6] it was 0.7 µM. The MIC90 in series [2] is 100 µM; in series [3] it was 83 µM; in the series on Yersinia pestis [5], > 19 µM; in the series on Yersinia pestis [6], 2 µM. Besides, the Ratio was 1 in series [4] and >10 in the series on Yersinia pestis [7]. Besides, the CC50 at 24 h in series [8] is 3 µM.
Regarding `Oc1ccccc1C1=NN(C(=S)Nc2ccccc2)[C@H](c2ccco2)C1`, the IC50 is 0.3 µM in series [1]; 72 µM in series [2]; 73 µM in series [3]; > 9 µM with Yersinia pestis [5]; 1 µM in the series with Yersinia pestis [6]. Further, the MIC90 in series [2] was 208 µM; in series [3], 250 µM; with Yersinia pestis [5] it was > 9 µM; in the series with Yersinia pestis [6], 2 µM. The Ratio in series [4] is given as 1; in the series with Yersinia pestis [7] it was >5. Further, the CC50 at 24 h in series [8] was 3 µM.

As usually defined, the IC50 is the concentration at which inhibition is half-maximal. The term MIC90 denotes an inhibitory concentration at the 90% level, which refers to growth in some studies and to a panel of isolates in others.
